Experimental data: article PMC11546339, “Conformational Plasticity Enhances the Brain Penetration of a Metabolically Stable, Dual-Functional Opioid-Peptide CycloAnt” (International Journal of Molecular Sciences, 2024)
Where a SMILES comes first, the peptide text is derived from it. Bridges are numbered along the chain shown (N, C = ends). [ ]: non-standard residue; d: D form. 2Abz = Nc1ccccc1C(=O)O; Dap = NC[C@H](N)C(=O)O

Experiments:
mouse DOR = molecular target: T1, mouse DOR (Mus musculus, UniProt P32300); assay: Opioid receptor radioligand binding assay ([3H]diprenorphine), DOR; conditions: CHO cell membranes, read-out: binding affinity (Ki) at DOR
T1 construct: expressed in transfected cells
T1 sequence (P32300 whole entry): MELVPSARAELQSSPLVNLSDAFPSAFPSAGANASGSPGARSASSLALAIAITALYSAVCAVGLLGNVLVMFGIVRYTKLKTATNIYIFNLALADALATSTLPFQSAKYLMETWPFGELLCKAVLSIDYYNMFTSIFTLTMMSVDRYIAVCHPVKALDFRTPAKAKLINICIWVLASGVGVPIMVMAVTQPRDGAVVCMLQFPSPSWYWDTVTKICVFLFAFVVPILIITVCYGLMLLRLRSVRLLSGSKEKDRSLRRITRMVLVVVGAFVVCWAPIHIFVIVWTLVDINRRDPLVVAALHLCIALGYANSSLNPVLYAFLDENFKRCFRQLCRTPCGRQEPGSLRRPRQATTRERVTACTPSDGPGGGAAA
Method: (§1) CycloAnt is a lariat peptide that acts in vivo as a bifunctional MOR agonist and DOR antagonist, which was confirmed in our previous study using opioid receptor individually knock-out (OP KO) mice. In the current study, the binding affinities of CycloAnt to the three opioid receptors are determined using cell-based radioligand opioid receptor binding assays. […] At the KOR, CycloAnt at 1 μM inhibits 6% and at 10 μM inhibits 26% of [^3H]diprenorphine binding.
(§2) Opioid receptor radioligand binding assay. Membranes of CHO cells stably expressing the rat MOR, mouse DOR, or human KOR were used in the experiments. [^3H]diprenorphine (PerkinElmer, Waltham, MA, at the time of experiment calculated to have specific activity 35 Ci/mmol) was used as the radioligand for the MOR, DOR, and KOR. Competition inhibition of [^3H]diprenorphine (0.3–0.4 nM) binding to the MOR or DOR was conducted in 50 mM Tris-HCl buffer (pH 7.4) with an adequate number of cell membranes for each receptor and […] of CycloAnt. […] Binding reactions were terminated by rapid filtration under vacuum over GF/B filters presoaked in 0.1% polyethyleneimine, and the bound radioactivity was counted by liquid scintillation counting. […] Binding data were analyzed using GraphPad Prism software (version 10.2.3) and IC50 values (the concentration necessary to inhibit 50 percent of radioligand binding) and Ki values were calculated. […]

human KOR = molecular target: T2, human KOR (Homo sapiens, UniProt P41145); assay: Opioid receptor radioligand binding assay ([3H]diprenorphine), KOR
T2 construct: expressed in transfected cells
T2 sequence (P41145 whole entry): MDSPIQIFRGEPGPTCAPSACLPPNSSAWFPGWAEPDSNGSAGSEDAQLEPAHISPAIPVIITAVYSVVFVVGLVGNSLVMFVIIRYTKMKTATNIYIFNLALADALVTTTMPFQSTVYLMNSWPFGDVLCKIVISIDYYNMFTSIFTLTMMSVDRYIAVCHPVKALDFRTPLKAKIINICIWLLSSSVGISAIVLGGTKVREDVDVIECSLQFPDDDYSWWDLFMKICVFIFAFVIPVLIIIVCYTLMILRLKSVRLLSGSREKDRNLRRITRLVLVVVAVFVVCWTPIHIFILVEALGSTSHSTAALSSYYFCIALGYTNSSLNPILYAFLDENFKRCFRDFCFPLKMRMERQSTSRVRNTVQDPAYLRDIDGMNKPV
Method: as §1, §2

[1] = Metabolism by UGTs in mouse liver microsomes (UDPGA); type: in vitro ADME; conditions: 3.07 μM, 0.5 mg/mL microsomes, alamethicin, 5 mM UDPGA, 37 °C, 60 min
Method: Next, we examined the level of glucuronidation of CycloAnt in mouse liver microsomes using a method described elsewhere. CycloAnt at a final concentration of 3.07 μM was premixed with 0.5 mg/mL liver microsomes and a channel-forming peptide antibiotic alamethicin at 0 °C. After 15 min, the glucuronidation was initiated by adding the UDP-glucuronosyl transferases (UGTs) substrate uridine-5’-diphospho-α-D-glucuronic acid (UDPGA) to a final concentration of 5 mM and the mixture was incubated at 37 °C [19]. At 0, 5, 15, 30, and 60 min, the incubation mixture was withdrawn and processed. The supernatant was collected and analyzed by LC-MS/MS.
Metabolism by UDP-glucuronosyl transferases (UGTs) in liver microsomes. CycloAnt dissolved in pH 7.2 PBS was diluted to 8 μM. Six hundred microliters of diluted CycloAnt, 800 μL of 0.975 mg/mL mouse liver microsomes, and 14 μL of 0.5 mM alamethicin containing 10 mM MgCl2, were mixed and preincubated on ice for 15 min. The reaction was then initiated by adding 74 μL of 100 mM uridine-5’-diphospho-α-D-glucuronic acid (UDPGA) and incubated at 37 °C for 0, 5, 15, 30, and 60 min. […] The dried sample was reconstituted in 100 μL of 20% acetonitrile and stored at −20 °C before analyzed by LC-MS/MS on the next day. […]

[2] = LC-MS/MS search for metabolites in mouse plasma after i.p. administration; type: in vivo; conditions: mouse plasma 15 min after 10 mg/kg i.p.; from m/z intensity
Method: To verify if CycloAnt could be metabolized in vivo, we looked for the possible metabolites (Scheme S1) in a blood sample collected from mice 15 min after i.p. administration of CycloAnt at a dose of 10 mg/kg. The proteins in the mouse plasma were precipitated by ice-cold acetonitrile containing internal standard. Following centrifugation, the supernatant was collected, and analyzed by LC-MS/MS. A total ion current (TIC) scan was conducted for the mass-to-charge ratio (m/z) in the range of 300–1500 for all ions, followed by the targeted narrow range scans. The scans in the range of 650–690 and 325–346 are aimed at detecting the potential [M + 1]^+ and [M + 2]^2+ ions from the Phase I metabolites, the enzymatically cleaved peptides, and intact CycloAnt, respectively (Figure S1 and Figure 2); and the scans in the range of 843–852 and 422–428 are for detecting the potential [M + 1]^+ and [M + 2]^2+ ions from the Phase II glucuronidation, respectively (Figure S3). The [M + 1]^+ and [M + 2]^2+ ions were then extracted from the narrow range scans for the potential enzymatically cleaved products (Figure S1), the Phase I metabolites (Figure S2), and the Phase II UGT metabolites (Figure S3). The relative abundance of the tallest peak was assigned as 100. […]

respiration in mice = system: respiration in mice; parameters: method as in PMID 38005269; conditions: high doses up to 15 times the ED50, mice; cited from earlier work
[3] = system: physical dependence in mice; parameters: method as in PMID 38005269; conditions: chronic administration, naloxone-precipitated withdrawal; cited from earlier work

For `C[C@@H](O)[C@@H]1NC(=O)[C@H](CNC(=O)c2ccccc2N)NC(=O)[C@H](NC(=O)[C@@H](N)Cc2ccc(O)cc2)CCCCNC(=O)CNC1=O` [CycloAnt] (H-Y[dK][Dap](2Abz)TG; lactam 2-C), the Ki (mouse DOR) was 7.85 ± 0.77 nM, the inhibition at 1 µM (human KOR; CycloAnt at 1 μM) was 6% and the inhibition at 10 µM (human KOR; CycloAnt at 10 μM) was 26%. The “stability against glucuronidation in mouse liver microsomes (UGTs)” value [1] was “stable against glucuronidation”, the “concentration of any metabolites relative to CycloAnt in plasma (fold lower)” value [2] was 10^3- to-10^4 fold and the respiratory depression (respiration in mice) was “does not produce any respiratory depression”. For the same compound, the physical dependence [3] was “significantly reduced physical dependence”.
